For one series, the system named is Jurkat cells. Put plainly: Anti-CD3ε induced IL-2 secretion of Jurkat cells (IL-2 release assay). As to conditions: Homo sapiens, 1 μg/ml, not shown. Type of series: cell-based. The procedure: (§1) Subsequently the cells were washed, counted and stimulated (10^5/well) in triplicate with plastic-immobilised NIP10-BSA conjugates (iNIP10-BSA) or plastic immobilised anti-CD3E mAb (ianti-CD3) in fresh CM alone or in the presence of the drugs (12). The plates were incubated at 37° C. in 5% CO2. After 20 hours supernatants were harvested and assayed for IL-2 activity using an ELISA kit (Genzyme Diagnostics, Cambridge, Mass.).

The test system of the next series is JLAV12S and JN3S cells. The conditions noted are these: 1 μg/ml, 48 hours; data not shown.
For another series, the system named is JN3S cells. As to the kind of experiment: IL-2 production of JN3S cells stimulated with iNIP10-BSA. As to conditions: doxycycline at a concentration of less than 1 μg/ml. Type of series: cell-based, human. The procedure:
as §1
The inventors next determined whether tetracycline-mediated suppression of the chTCR could induce a reversible state of antigen unresponsiveness in the transfected Jurkat cells. JLAV12S and JN3S cells were preincubated for 48 hours in increasing concentrations of Dox and Tet and then stimulated with immobilized NIP-BSA, following which their IL-2 production was measured.
FIGS. 5A and 5B are bar charts showing IL-2 production (in pg/ml) by transfected JLAV12S (5A) or JN3S (5B) cells stimulated with iNIP10-BSA in the absence or presence of Tet or Dox. Cells were preincubated for a 48 hours period in the absence or presence of the drugs (at the indicated concentration in ng/ml), washed and stimulated (10^5/well) with plastic immobilised NIP10-BSA conjugates (50 μg/ml) in fresh CM alone (solid bar) or in the presence of Tet (shaded bars) or Dox (open bars) at the indicated concentrations. One of two similar experiments is shown.

For series [1], the system named is chTCR gene expression. As to the kind of experiment: Regulation of surface chTCR expression in cloned pLAV12 transfectants (1E5/1F5 and 2E11), FACS. Type of series: cell-based, human. As for the experimental part: (§2) The Jurkat T cell line (clone E6-l) was maintained in RPMI 1640 supplemented with 10% foetal calf serum (FCS), 2 mM L-glutamine, 100 U/ml penicillin, 100 μg/ml streptomycin and 25 mM HEPES buffer (all from GIBCO-BRL, Gaithersburg, Md.), referred to as complete medium (CM). To generate stable cell lines Jurkat cells were transfected with linearized plasmid DNA (10 μg) by electroporation, at […] and 960 μF, as described previously (13). Transfectants were selected in CM supplemented with 0.4 mg/ml of hygromycin B (Calbiochem, San Diego, Calif.). Stable cell lines were established after 3-4 weeks and analyzed by FACS for expression of the chTCR. To select a population of chTCR ζ expressing cells, stable Jurkat cells transfected with the linearized pLAV12 or pCEP4.aNIP.TCR ζ derived plasmid fragments were FACS sorted (see below). The resultant populations were cloned twice by limiting dilution and screened for protein expression by flow cytometry.
(§3) Expression of cell surface proteins was performed by standard direct immunofluorescence as described (14) using saturating amounts of FITC-conjugated antibodies. Dead cells were excluded from analysis using a combination of propidium iodide and forward light scatter. Appropriate FITC isotype-matched irrelevant Abs were used in all experiments. The samples were analysed with a FACScan® (Becton Dickinson, Mountain View, Calif.). A minimum of 20,000 cells was analysed for each sample. Subsequent re-analysis of data was performed using the CELLQuest software (version 1.2) (Becton Dickinson). Additionally, cells stained with FITC-conjugated goat antisera to mouse λ light chain were sorted under sterile conditions on a cell sorter (FACScalibur, Becton Dickinson).
The selected population of pLAV12 transfectants (JLAV12S) was then cloned by limiting dilution and two subclones expressing the chTCR at low (2E11) and intermediate (IF5) levels (FIG. 3) were selected for further study.
(§4) A dose-response curve of gene repression was determined using different concentrations of Tet or Dox. After 48 hours of treatment, the cells were harvested and the expression of the chTCR was studied by FACS analysis.
(§5) Stably transfected uncloned (JLAV12S, left hand column) and cloned (1F5, middle column; and 2E11, right hand column) Jurkat cell populations were cultured for 48 hours in the presence of different concentrations (0 ng/ml top row, 0.1 ng/ml second row, 1 ng/ml third row, and 10 ng/ml bottom row) of Tet (broken line) or Dox (solid line) and the surface expression of scFv-TCR ζ molecules was examined. Negative controls (FITC-conjugated goat antisera to mouse IgG) are overlaid (filled curve). The fluorescence channel number is plotted along the x axis, and the y axis represents the relative cell number.

For series [2], the system named is chTCR gene expression. Put plainly: Regulation of surface chTCR expression by tetracyclines in JLAV12S (pLAV12-transfected Jurkat) cells, FACS. As to conditions: for surface chTCRs down-regulated: 1 μg/ml; for surface chTCRs down-regulated / concentration for maximal repression: 48 hours. Type of series: cell-based, human. The procedure: as §2, §3
To study the time-course of inactivation of gene expression, JLAV12S cells were analysed at different times after addition of the antibiotics at 1 μg/ml (FIG. 2B).
as §4, §5

In general, inhibition refers to the drop in the measured response relative to a control, in per cent. High values mean a strong effect, low ones a weak effect. The compound `C[C@H]1c2cccc(O)c2C(=O)C2=C(O)[C@]3(O)C(=O)C(C(N)=O)=C(O)[C@@H](N(C)C)[C@@H]3[C@@H](O)[C@@H]21` [doxycycline] yielded an inhibition at 1 µg/mL in the series with Jurkat cells of 25%. Further, the “changes in cell viability” value in the series with JLAV12S and JN3S cells is given as “No changes”. Moreover, the “effect on IL-2 production upon stimulation with iNIP10-BSA conjugates” value in the series with JN3S cells was “no inhibitory effect”. Moreover, the “level of chTCR as % of its maximal expression” value in the series with chTCR gene expression [1] (1E5 clone) is given as “about 10%”. Moreover, the “level of chTCR as % of its maximal expression” value in the series with chTCR gene expression [1] (2E11 clone) is on record as about 20%. Moreover, the “concentration at which expression of chTCRs was maximally repressed” value with chTCR gene expression [1] (clonal populations 1E5 and 2E11, 48 hours) was determined as 100 pg/mL. For the same compound, in the series with chTCR gene expression [2] (JLAV12S cells), the “surface chTCRs down-regulated” value amounted to 90% and the “concentration for maximal repression” value was “greater than or equal to 1 ng/ml”.

As to `CN(C)[C@@H]1C(O)=C(C(N)=O)C(=O)[C@@]2(O)C(O)=C3C(=O)c4c(O)cccc4[C@@](C)(O)[C@H]3C[C@@H]12` [tetracycline], in the series on JN3S cells, the “effect on IL-2 production upon stimulation with iNIP10-BSA conjugates” value is “no inhibitory effect”. In addition, the “level of chTCR as % of its maximal expression” value with chTCR gene expression [1] (1E5 clone) is listed as “about 10%”; with chTCR gene expression [1] (2E11 clone), about 20%. Besides, the “surface chTCRs down-regulated” value with chTCR gene expression [2] (JLAV12S cells) is 90%. The “concentration for maximal repression” value in the series on chTCR gene expression [2] (all the analysed cell lines) is reported as “greater than or equal to 10 ng/ml”. In the series on chTCR gene expression [2] (in our system), the “concentration of maximum repression” value was found to be 10 ng/mL.

Source of the values: patent publication US20070179110A1, “EXPRESSION OF IMMUNOGENIC SUBSTANCES” (Mayo Foundation for Medical Education and Research, priority 1997, published 2007).
